# Test results from patent US8802597B2, “Herbicidal pyrimidines” (E I du Pont de Nemours and Company, priority 2003, dated 2014).
# Read-outs that look alike come from different tables or passages of the source.
# Tests used:
# Format in all cases: in vivo
# [1] = test system: duck salad (Heteranthera limosa); assay: Test B flooded paddy test; conditions: Heteranthera limosa, Flood, 1000 g ai/ha; scale 0 to 100; read-out: Plant response rating, Ducksalad
# Method in brief: (§1)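 Plants were grown to the 2-leaf stage before treatment, then kept in a greenhouse for 13 to 15 days. Injury was rated visually against untreated controls on a 0 to 100 scale, where 0 is no effect and 100 is complete control.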
# [2] = test system: barnyardgrass (Echinochloa crus-galli); assay: Test B flooded paddy test; conditions: Echinochloa crus-galli, Flood, 1000 g ai/ha; scale 0 (no effect) to 100 (complete control); read-out: Plant response rating, Barnyardgrass
# Method in brief: as §1
# rice (Oryza sativa) = assay: Test B flooded paddy test; conditions: Oryza sativa, Flood, 1000 g ai/ha; scale 0 to 100; read-out: Plant response rating, Rice
# Method in brief: as §1
# [3] = test system: umbrella sedge (Cyperus difformis); assay: Test B flooded paddy test; conditions: Cyperus difformis, Flood, 1000 g ai/ha; scale 0 to 100; read-out: Plant response rating, Sedge, Umbrella
# Method in brief: as §1
# [4] = test system: barnyardgrass (Echinochloa crus-galli); assay: Test B pre/postemergence; conditions: Echinochloa crus-galli; for pest or weed control at 125 g/ha: 125 g ai/ha; for pest or weed control at 500 g/ha: 500 g ai/ha
# Method in brief: (§2)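 Plants treated pre- or postemergence were compared visually with controls after 13 to 15 days. Ratings ran from 0, no effect, to 100, complete control.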
# [5] = test system: velvetleaf (Abutilon theophrasti); assay: Test B pre/postemergence; conditions: Abutilon theophrasti; for pest or weed control at 125 g/ha: 125 g ai/ha; for pest or weed control at 500 g/ha: 500 g ai/ha
# Method in brief: as §2
# [6] = test system: cocklebur (Xanthium strumarium); assay: Test B pre/postemergence; conditions: Xanthium strumarium; for pest or weed control at 125 g/ha: 125 g ai/ha; for pest or weed control at 500 g/ha: 500 g ai/ha
# Method in brief: as §2
# [7] = test system: pigweed (Amaranthus retroflexus); assay: Test B pre/postemergence; conditions: Amaranthus retroflexus; for pest or weed control at 125 g/ha: 125 g ai/ha; for pest or weed control at 500 g/ha: 500 g ai/ha
# Method in brief: as §2
# [8] = test system: wheat (Triticum aestivum); assay: Test B pre/postemergence; conditions: Triticum aestivum; for plant injury at 125 g/ha: 125 g ai/ha; for plant injury at 500 g/ha: 500 g ai/ha
# Method in brief: as §2
# [9] = test system: lambsquarters (Chenopodium album); assay: Test B pre/postemergence; conditions: Chenopodium album; for pest or weed control at 125 g/ha: 125 g ai/ha; for pest or weed control at 500 g/ha: 500 g ai/ha
# Method in brief: as §2
# [10] = test system: crabgrass (Digitaria sanguinalis); assay: Test B pre/postemergence; conditions: Digitaria sanguinalis; for pest or weed control at 125 g/ha: 125 g ai/ha; for pest or weed control at 500 g/ha: 500 g ai/ha
# Method in brief: as §2
# [11] = test system: morningglory (Ipomoea coccinea); assay: Test B pre/postemergence; conditions: Ipomoea; for pest or weed control at 125 g/ha: 125 g ai/ha; for pest or weed control at 500 g/ha: 500 g ai/ha
# Method in brief: as §2
# [12] = test system: Surinam grass (Brachiaria decumbens); assay: Test B pre/postemergence; conditions: Urochloa decumbens; for pest or weed control at 125 g/ha: 125 g ai/ha; for pest or weed control at 500 g/ha: 500 g ai/ha
# Method in brief: as §2
# [13] = test system: giant foxtail (Setaria faberii); assay: Test B pre/postemergence; conditions: Setaria faberi; for pest or weed control at 125 g/ha: 125 g ai/ha; for pest or weed control at 500 g/ha: 500 g ai/ha
# Method in brief: as §2
# corn (Zea mays) = assay: Test B pre/postemergence; conditions: Zea mays
# Method in brief: as §2
# [14] = test system: blackgrass (Alopecurus myosuroides); assay: Test B postemergence; conditions: Alopecurus myosuroides, post-emergence
# Method in brief: as §2
# wild oat (Avena fatua) = assay: Test B postemergence; conditions: Avena fatua, post-emergence
# Method in brief: as §2
smiles,measurement,setting,value
"COC(=O)c1nc(C2CC2)nc(N)c1Br [Compound 2, methyl 6-amino-5-bromo-2-cyclopropyl-4-pyrimidinecarboxylate]",pest or weed control at 1000 g/ha,[1],90%
same,pest or weed control at 1000 g/ha,[2],90%
same,plant injury at 1000 g/ha,rice (Oryza sativa),60%
same,pest or weed control at 1000 g/ha,[3],90%
same,pest or weed control at 125 g/ha,"[4]; post-emergence, Postemergence, scale 0 to 100 (0 no effect, 100 complete control), read-out: Barnyardgrass plant response rating",90%
same,pest or weed control at 500 g/ha,"[4]; post-emergence, Postemergence, scale 0 to 100, read-out: Plant response rating, Barnyardgrass",90%
same,pest or weed control at 125 g/ha,"[4]; pre-emergence, Preemergence, scale 0 to 100 (0 no effect, 100 complete control), read-out: Plant response rating, Barnyardgrass",70%
same,pest or weed control at 500 g/ha,"[4]; pre-emergence, Preemergence, scale 0 to 100 (0 no effect, 100 complete control), read-out: Barnyardgrass plant response rating",90%
same,pest or weed control at 125 g/ha,"[5]; post-emergence, Postemergence, scale 0 to 100 (0 no effect, 100 complete control), read-out: Velvetleaf plant response rating",60%
same,pest or weed control at 500 g/ha,"[5]; post-emergence, Postemergence, scale 0 to 100, read-out: Plant response rating, Velvetleaf",100%
same,pest or weed control at 125 g/ha,"[5]; pre-emergence, Preemergence, scale 0 to 100 (0 no effect, 100 complete control), read-out: Plant response rating, Velvetleaf",90%
same,pest or weed control at 500 g/ha,"[5]; pre-emergence, Preemergence, scale 0 to 100 (0 no effect, 100 complete control), read-out: Velvetleaf plant response rating",100%
same,pest or weed control at 125 g/ha,"[6]; post-emergence, Postemergence, scale 0 to 100 (0 no effect, 100 complete control), read-out: Cocklebur plant response rating",100%
same,pest or weed control at 500 g/ha,"[6]; post-emergence, Postemergence, scale 0 to 100, read-out: Plant response rating, Cocklebur",100%
same,pest or weed control at 125 g/ha,"[6]; pre-emergence, Preemergence, scale 0 to 100 (0 no effect, 100 complete control), read-out: Plant response rating, Cocklebur",90%
same,pest or weed control at 500 g/ha,"[6]; pre-emergence, Preemergence, scale 0 to 100 (0 no effect, 100 complete control), read-out: Cocklebur plant response rating",100%
same,pest or weed control at 125 g/ha,"[7]; post-emergence, Postemergence, scale 0 to 100 (0 no effect, 100 complete control), read-out: Pigweed plant response rating",100%
same,pest or weed control at 500 g/ha,"[7]; post-emergence, Postemergence, scale 0 to 100, read-out: Plant response rating, Pigweed",100%
same,pest or weed control at 125 g/ha,"[7]; pre-emergence, Preemergence, scale 0 to 100 (0 no effect, 100 complete control), read-out: Plant response rating, Pigweed",90%
same,pest or weed control at 500 g/ha,"[7]; pre-emergence, Preemergence, scale 0 to 100 (0 no effect, 100 complete control), read-out: Pigweed plant response rating",100%
same,plant injury at 125 g/ha,"[8]; post-emergence, Postemergence, scale 0 to 100 (0 no effect, 100 complete control), read-out: Wheat plant response rating",40%
same,plant injury at 500 g/ha,"[8]; post-emergence, Postemergence, scale 0 to 100, read-out: Plant response rating, Wheat",70%
same,plant injury at 125 g/ha,"[8]; pre-emergence, Preemergence, scale 0 to 100 (0 no effect, 100 complete control), read-out: Plant response rating, Wheat",60%
same,plant injury at 500 g/ha,"[8]; pre-emergence, Preemergence, scale 0 to 100 (0 no effect, 100 complete control), read-out: Wheat plant response rating",70%
same,pest or weed control at 125 g/ha,"[9]; post-emergence, Postemergence, scale 0 to 100 (0 no effect, 100 complete control), read-out: Lambsquarters plant response rating",100%
same,pest or weed control at 500 g/ha,"[9]; post-emergence, Postemergence, scale 0 to 100, read-out: Plant response rating, Lambsquarters",100%
same,pest or weed control at 125 g/ha,"[9]; pre-emergence, Preemergence, scale 0 to 100 (0 no effect, 100 complete control), read-out: Plant response rating, Lambsquarters",100%
same,pest or weed control at 500 g/ha,"[9]; pre-emergence, Preemergence, scale 0 to 100 (0 no effect, 100 complete control), read-out: Lambsquarters plant response rating",100%
same,pest or weed control at 125 g/ha,"[10]; post-emergence, Postemergence, scale 0 to 100 (0 no effect, 100 complete control), read-out: Crabgrass plant response rating",90%
same,pest or weed control at 500 g/ha,"[10]; post-emergence, Postemergence, scale 0 to 100, read-out: Plant response rating, Crabgrass",90%
same,pest or weed control at 125 g/ha,"[10]; pre-emergence, Preemergence, scale 0 to 100 (0 no effect, 100 complete control), read-out: Plant response rating, Crabgrass",90%
same,pest or weed control at 500 g/ha,"[10]; pre-emergence, Preemergence, scale 0 to 100 (0 no effect, 100 complete control), read-out: Crabgrass plant response rating",90%
same,pest or weed control at 125 g/ha,"[11]; post-emergence, Postemergence, scale 0 to 100 (0 no effect, 100 complete control), read-out: Morningglory plant response rating",100%
same,pest or weed control at 500 g/ha,"[11]; post-emergence, Postemergence, scale 0 to 100, read-out: Plant response rating, Morningglory",100%
same,pest or weed control at 125 g/ha,"[11]; pre-emergence, Preemergence, scale 0 to 100 (0 no effect, 100 complete control), read-out: Plant response rating, Morningglory",100%
same,pest or weed control at 500 g/ha,"[11]; pre-emergence, Preemergence, scale 0 to 100 (0 no effect, 100 complete control), read-out: Morningglory plant response rating",100%
same,pest or weed control at 125 g/ha,"[12]; post-emergence, Postemergence, scale 0 to 100 (0 no effect, 100 complete control), read-out: Surinam Grass plant response rating",90%
same,pest or weed control at 500 g/ha,"[12]; post-emergence, Postemergence, scale 0 to 100, read-out: Plant response rating, Surinam Grass",90%
same,pest or weed control at 125 g/ha,"[12]; pre-emergence, Preemergence, scale 0 to 100 (0 no effect, 100 complete control), read-out: Plant response rating, Surinam Grass",40%
same,pest or weed control at 500 g/ha,"[12]; pre-emergence, Preemergence, scale 0 to 100 (0 no effect, 100 complete control), read-out: Surinam Grass plant response rating",90%
same,pest or weed control at 125 g/ha,"[13]; post-emergence, Postemergence, scale 0 to 100 (0 no effect, 100 complete control), read-out: Foxtail, Giant plant response rating",70%
same,pest or weed control at 500 g/ha,"[13]; post-emergence, Postemergence, scale 0 to 100, read-out: Plant response rating, Foxtail, Giant",80%
same,pest or weed control at 125 g/ha,"[13]; pre-emergence, Preemergence, scale 0 to 100 (0 no effect, 100 complete control), read-out: Plant response rating, Foxtail, Giant",30%
same,pest or weed control at 500 g/ha,"[13]; pre-emergence, Preemergence, scale 0 to 100 (0 no effect, 100 complete control), read-out: Foxtail, Giant plant response rating",90%
same,plant injury at 125 g/ha,"corn (Zea mays); post-emergence, Postemergence, 125 g ai/ha, scale 0 to 100 (0 no effect, 100 complete control), read-out: Corn plant response rating",20%
same,"Corn plant response rating (crop injury, 0 = no effect, 100 = complete kill) at 500 g/ha","corn (Zea mays); post-emergence, Postemergence, 500 g ai/ha, scale 0 to 100",80%
same,"Corn plant response rating (crop injury, 0 = no effect, 100 = complete kill) at 125 g/ha","corn (Zea mays); pre-emergence, Preemergence, 125 g ai/ha, scale 0 to 100 (0 no effect, 100 complete control)",0%
same,plant injury at 500 g/ha,"corn (Zea mays); pre-emergence, Preemergence, 500 g ai/ha, scale 0 to 100 (0 no effect, 100 complete control), read-out: Corn plant response rating",80%
same,pest or weed control at 125 g/ha,"[14]; 125 g ai/ha, scale 0 to 100 (0 no effect, 100 complete control), read-out: Blackgrass plant response rating",50%
same,pest or weed control at 500 g/ha,"[14]; 500 g ai/ha, scale 0 to 100, read-out: Plant response rating, Blackgrass",80%
same,pest or weed control at 125 g/ha,"wild oat (Avena fatua); 125 g ai/ha, scale 0 to 100 (0 no effect, 100 complete control), read-out: Oat, Wild plant response rating",40%
same,pest or weed control at 500 g/ha,"wild oat (Avena fatua); 500 g ai/ha, scale 0 to 100, read-out: Plant response rating, Oat, Wild",70%
